Experimental data reported in ChEMBL document CHEMBL3297661, “1-Substituted-5-[(3,5-dinitrobenzyl)sulfanyl]-1H-tetrazoles and their isosteric analogs: A new class of selective antitubercular agents active against drug-susceptible and multidrug-resistant mycobacteria” (Eur J Med Chem, 2014).
Converted amounts (≈) assume the structure as drawn.

What was measured:
[1] = system: Pseudomonas aeruginosa; test: Antibacterial activity against Pseudomonas aeruginosa ATCC 9027 after 48 hrs by broth microdilution method; format: functional; settings: ATCC 9027, 48 h
[2] = system: Candida albicans; test: Antifungal activity against Candida albicans ATCC 44859 after 24 hrs by broth microdilution method; format: functional; settings: ATCC 44859, 24 h
[3] = system: Candida albicans; test: Antifungal activity against Candida albicans ATCC 44859 after 48 hrs by broth microdilution method; format: functional; settings: ATCC 44859, 48 h
[4] = system: Candida tropicalis; test: Antifungal activity against Candida tropicalis 156 after 24 hrs by broth microdilution method; format: functional; settings: Candida tropicalis, 156, 24 h
[5] = system: Candida tropicalis; test: Antifungal activity against Candida tropicalis 156 after 48 hrs by broth microdilution method; format: functional; settings: Candida tropicalis, 156, 48 h
[6] = system: Pichia kudriavzevii; test: Antifungal activity against Candida krusei E28 after 24 hrs by broth microdilution method; format: functional; settings: E28, 24 h
[7] = system: Pichia kudriavzevii; test: Antifungal activity against Candida krusei E28 after 48 hrs by broth microdilution method; format: functional; settings: E28, 48 h
[8] = system: Nakaseomyces glabratus; test: Antifungal activity against Candida glabrata 20/I after 24 hrs by broth microdilution method; format: functional
[9] = system: Nakaseomyces glabratus; test: Antifungal activity against Candida glabrata 20/I after 48 hrs by broth microdilution method; format: functional
[10] = system: Trichosporon asahii; test: Antifungal activity against Trichosporon asahii 1188 after 24 hrs by broth microdilution method; format: functional; settings: Trichosporon asahii, 1188, 24 h
[11] = system: Trichosporon asahii; test: Antifungal activity against Trichosporon asahii 1188 after 48 hrs by broth microdilution method; format: functional; settings: Trichosporon asahii, 1188, 48 h
[12] = system: Aspergillus fumigatus; test: Antifungal activity against Aspergillus fumigatus 231 after 24 hrs by broth microdilution method; format: functional, organism-based; settings: Aspergillus fumigatus, 231, 24 h
[13] = system: Aspergillus fumigatus; test: Antifungal activity against Aspergillus fumigatus 231 after 48 hrs by broth microdilution method; format: functional, organism-based; settings: Aspergillus fumigatus, 231, 48 h
[14] = system: Lichtheimia corymbifera; test: Antifungal activity against Absidia corymbifera 272 after 24 hrs by broth microdilution method; format: functional, organism-based; settings: Lichtheimia corymbifera, 272, 24 h
[15] = system: Lichtheimia corymbifera; test: Antifungal activity against Absidia corymbifera 272 after 48 hrs by broth microdilution method; format: functional, organism-based; settings: Lichtheimia corymbifera, 272, 48 h
[16] = system: Trichophyton mentagrophytes; test: Antifungal activity against Trichophyton mentagrophytes 445 after 72 hrs by broth microdilution method; format: functional, organism-based; settings: Trichophyton mentagrophytes, 445, 72 h
[17] = system: Trichophyton mentagrophytes; test: Antifungal activity against Trichophyton mentagrophytes 445 after 120 hrs by broth microdilution method; format: functional, organism-based; settings: Trichophyton mentagrophytes, 445, 120 h
[18] = Cytotoxicity against human HeLa cells assessed as cell viability at 30 uM after 48 hrs by MTT assay; format: cell-based; settings: read-out: Activity
[19] = Cytotoxicity against human HuH7 cells assessed as cell viability at 30 uM after 48 hrs by MTT assay; format: cell-based, Huh-7; settings: read-out: Activity
[20] = Cytotoxicity against human HepG2 cells assessed as cell viability at 30 uM after 48 hrs by MTT assay; format: cell-based; settings: read-out: Activity
[21] = Cytotoxicity against MDCK2 cells assessed as cell viability at 30 uM after 48 hrs by MTT assay; format: cell-based, Canis lupus familiaris, MDCK-II; settings: dog, read-out: Activity
[22] = system: HeLa; test: Cytotoxicity against human HeLa cells assessed as reduction in cell viability after 48 hrs by MTT assay; format: cell-based
[23] = Cytotoxicity against human HuH7 cells assessed as reduction in cell viability after 48 hrs by MTT assay; format: cell-based; settings: Huh-7, 48 h
[24] = Cytotoxicity against MDCK2 cells assessed as reduction in cell viability after 48 hrs by MTT assay; format: cell-based; settings: Canis lupus familiaris, MDCK-II
[25] = system: HepG2; test: Cytotoxicity against human HepG2 cells assessed as reduction in cell viability after 48 hrs by MTT assay; format: cell-based; settings: HepG2, 48 h
[26] = system: Mycobacterium tuberculosis; test: Antimycobacterial activity against Mycobacterium tuberculosis CNCTC My 331/88 after 14 days by micromethod; format: functional; settings: CNCTC My 331/88, 336 h
[27] = system: Mycobacterium tuberculosis; test: Antimycobacterial activity against Mycobacterium tuberculosis CNCTC My 331/88 after 21 days by micromethod; format: functional; settings: CNCTC My 331/88, 504 h
[28] = system: Mycobacterium avium; test: Antimycobacterial activity against Mycobacterium avium CNCTC My 330/88 after 14 days by micromethod; format: functional; settings: CNCTC My 330/88, 336 h
[29] = system: Mycobacterium avium; test: Antimycobacterial activity against Mycobacterium avium CNCTC My 330/88 after 21 days by micromethod; format: functional; settings: CNCTC My 330/88, 504 h
[30] = system: Mycobacterium kansasii; test: Antimycobacterial activity against Mycobacterium kansasii CNCTC My 235/80 after 7 days by micromethod; format: functional; settings: CNCTC My 235/80, 168 h
[31] = system: Mycobacterium kansasii; test: Antimycobacterial activity against Mycobacterium kansasii CNCTC My 235/80 after 14 days by micromethod; format: functional; settings: CNCTC My 235/80, 336 h
[32] = system: Mycobacterium kansasii; test: Antimycobacterial activity against Mycobacterium kansasii CNCTC My 235/80 after 21 days by micromethod; format: functional; settings: CNCTC My 235/80, 504 h
[33] = system: Mycobacterium kansasii; test: Antimycobacterial activity against Mycobacterium kansasii 6509/96 after 7 days by micromethod; format: functional; settings: 6509/96, 168 h
[34] = system: Mycobacterium kansasii; test: Antimycobacterial activity against Mycobacterium kansasii 6509/96 after 14 days by micromethod; format: functional; settings: 6509/96, 336 h
[35] = system: Mycobacterium kansasii; test: Antimycobacterial activity against Mycobacterium kansasii 6509/96 after 21 days by micromethod; format: functional; settings: 6509/96, 504 h
[36] = system: Staphylococcus aureus; test: Antibacterial activity against Staphylococcus aureus ATCC 6538 after 24 hrs by broth microdilution method; format: functional; settings: ATCC 6538, 24 h
[37] = system: Staphylococcus aureus; test: Antibacterial activity against Staphylococcus aureus ATCC 6538 after 48 hrs by broth microdilution method; format: functional; settings: ATCC 6538, 48 h
[38] = system: Staphylococcus aureus; test: Antibacterial activity against methicillin-resistant Staphylococcus aureus H 5996/08 after 24 hrs by broth microdilution method; format: functional; settings: H 5996/08, 24 h
[39] = system: Staphylococcus aureus; test: Antibacterial activity against methicillin-resistant Staphylococcus aureus H 5996/08 after 48 hrs by broth microdilution method; format: functional; settings: H 5996/08, 48 h
[40] = system: Staphylococcus epidermidis; test: Antibacterial activity against Staphylococcus epidermidis H 6966/08 after 24 hrs by broth microdilution method; format: functional; settings: H 6966/08, 24 h
[41] = system: Staphylococcus epidermidis; test: Antibacterial activity against Staphylococcus epidermidis H 6966/08 after 48 hrs by broth microdilution method; format: functional; settings: H 6966/08, 48 h
[42] = system: Enterococcus faecalis; test: Antibacterial activity against Enterococcus faecalis J 14365/08 after 24 hrs by broth microdilution method; format: functional; settings: J 14365/08, 24 h
[43] = system: Enterococcus faecalis; test: Antibacterial activity against Enterococcus faecalis J 14365/08 after 48 hrs by broth microdilution method; format: functional; settings: J 14365/08, 48 h
[44] = system: Escherichia coli; test: Antibacterial activity against Escherichia coli ATCC 8739 after 24 hrs by broth microdilution method; format: functional; settings: ATCC 8739, ATCC 8739, 24 h
[45] = system: Escherichia coli; test: Antibacterial activity against Escherichia coli ATCC 8739 after 48 hrs by broth microdilution method; format: functional; settings: ATCC 8739, ATCC 8739, 48 h
[46] = system: Klebsiella pneumoniae; test: Antibacterial activity against Klebsiella pneumoniae D 11750/08 after 24 hrs by broth microdilution method; format: functional; settings: D 11750/08, 24 h
[47] = system: Klebsiella pneumoniae; test: Antibacterial activity against Klebsiella pneumoniae D 11750/08 after 48 hrs by broth microdilution method; format: functional; settings: D 11750/08, 48 h
[48] = system: Klebsiella pneumoniae; test: Antibacterial activity against extended spectrum beta-lactamase producing Klebsiella pneumoniae J 14368/08 after 24 hrs by broth microdilution method; format: functional; settings: J 14368/08, 24 h
[49] = system: Klebsiella pneumoniae; test: Antibacterial activity against extended spectrum beta-lactamase producing Klebsiella pneumoniae J 14368/08 after 48 hrs by broth microdilution method; format: functional; settings: J 14368/08, 48 h
[50] = system: Pseudomonas aeruginosa; test: Antibacterial activity against Pseudomonas aeruginosa ATCC 9027 after 24 hrs by broth microdilution method; format: functional; settings: ATCC 9027, 24 h

O=[N+]([O-])c1cc(C[Se]c2nnnn2Cc2ccccc2)cc([N+](=O)[O-])c1
IC95 [1]: > 500 µM | IC80 [2]: > 500 µM | IC80 [3]: > 500 µM | IC80 [4]: > 500 µM | IC80 [5]: > 500 µM | IC80 [6]: > 500 µM | IC80 [7]: > 500 µM | IC80 [8]: > 500 µM | IC80 [9]: > 500 µM | IC80 [10]: > 500 µM | IC80 [11]: > 500 µM | IC50 [12]: > 500 µM | IC50 [13]: > 500 µM | IC50 [14]: > 500 µM | IC50 [15]: > 500 µM | IC50 [16]: > 500 µM | IC50 [17]: > 500 µM | viability at 48 h, 30 µM [18]: 54% | viability at 48 h, 30 µM [19]: 70% | viability at 48 h, 30 µM [20]: 33% | viability at 48 h, 30 µM [21]: 41% | IC50 [22]: > 30 µM | IC50 [23]: > 30 µM | IC50 [24]: 22 µM | IC50 [25]: 16.5 µM | MIC [26]: 1 µM (≈ 0.419 µg/mL) | MIC [27]: 2 µM (≈ 0.839 µg/mL) | MIC [28]: 32 µM (≈ 13.4 µg/mL) | MIC [29]: 32 µM (≈ 13.4 µg/mL) | MIC [30]: 2 µM (≈ 0.839 µg/mL) | MIC [31]: 4 µM (≈ 1.68 µg/mL) | MIC [32]: 4 µM (≈ 1.68 µg/mL) | MIC [33]: 4 µM (≈ 1.68 µg/mL) | MIC [34]: 8 µM (≈ 3.35 µg/mL) | MIC [35]: 8 µM (≈ 3.35 µg/mL) | IC95 [36]: > 500 µM | IC95 [37]: > 500 µM | IC95 [38]: > 500 µM | IC95 [39]: > 500 µM | IC95 [40]: > 500 µM | IC95 [41]: > 500 µM | IC95 [42]: > 500 µM | IC95 [43]: > 500 µM | IC95 [44]: > 500 µM | IC95 [45]: > 500 µM | IC95 [46]: > 500 µM | IC95 [47]: > 500 µM | IC95 [48]: > 500 µM | IC95 [49]: > 500 µM | IC95 [50]: > 500 µM

O=[N+]([O-])c1cc(C[Se]c2nnnn2C2CCCCC2)cc([N+](=O)[O-])c1
IC95 [1]: > 500 µM | IC80 [2]: > 500 µM | IC80 [3]: > 500 µM | IC80 [4]: > 500 µM | IC80 [5]: > 500 µM | IC80 [6]: > 500 µM | IC80 [7]: > 500 µM | IC80 [8]: > 500 µM | IC80 [9]: > 500 µM | IC80 [10]: > 500 µM | IC80 [11]: > 500 µM | IC50 [12]: > 500 µM | IC50 [13]: > 500 µM | IC50 [14]: > 500 µM | IC50 [15]: > 500 µM | IC50 [16]: > 500 µM | IC50 [17]: > 500 µM | viability at 48 h, 30 µM [18]: 66% | viability at 48 h, 30 µM [19]: 125% | viability at 48 h, 30 µM [20]: 87% | viability at 48 h, 30 µM [21]: 7% | IC50 [22]: > 30 µM | IC50 [23]: > 30 µM | IC50 [24]: 19 µM | IC50 [25]: > 30 µM | MIC [26]: 1 µM (≈ 0.411 µg/mL) | MIC [27]: 2 µM (≈ 0.823 µg/mL) | MIC [28]: 32 µM (≈ 13.2 µg/mL) | MIC [29]: 32 µM (≈ 13.2 µg/mL) | MIC [30]: 1 µM (≈ 0.411 µg/mL) | MIC [31]: 1 µM (≈ 0.411 µg/mL) | MIC [32]: 2 µM (≈ 0.823 µg/mL) | MIC [33]: 2 µM (≈ 0.823 µg/mL) | MIC [34]: 4 µM (≈ 1.65 µg/mL) | MIC [35]: 4 µM (≈ 1.65 µg/mL) | IC95 [36]: > 500 µM | IC95 [37]: > 500 µM | IC95 [38]: > 500 µM | IC95 [39]: > 500 µM | IC95 [40]: > 500 µM | IC95 [41]: > 500 µM | IC95 [42]: > 500 µM | IC95 [43]: > 500 µM | IC95 [44]: > 500 µM | IC95 [45]: > 500 µM | IC95 [46]: > 500 µM | IC95 [47]: > 500 µM | IC95 [48]: > 500 µM | IC95 [49]: > 500 µM | IC95 [50]: > 500 µM
